Data as given in ChEMBL document CHEMBL4507290 (2021).

Assays:
Conditions in all cases: Compound concentration 1000.0 nM
[1] = target: Tyrosine-protein kinase Fer (Homo sapiens) (UniProt P16591)
[2] = target: SRSF protein kinase 3 (Homo sapiens) (UniProt Q9UPE1)
[3] = target: Calcium/calmodulin-dependent protein kinase type II subunit gamma (Homo sapiens) (UniProt Q13555)
[4] = target: Casein kinase I isoform gamma-1 (Homo sapiens) (UniProt Q9HCP0)
[5] = target: Serine/threonine-protein kinase PAK 3 (Homo sapiens) (UniProt O75914)
[6] = target: Ribosomal protein S6 kinase alpha-6 (Homo sapiens) (UniProt Q9UK32)
[7] = target: Homeodomain-interacting protein kinase 1 (Homo sapiens) (UniProt Q86Z02)
[8] = target: Tyrosine-protein kinase TXK (Homo sapiens) (UniProt P42681)
[9] = target: Mitogen-activated protein kinase kinase kinase kinase 4 (Homo sapiens) (UniProt O95819)
[10] = target: Cyclin-dependent kinase 3 (Homo sapiens) (UniProt Q00526)
[11] = target: Cyclin-dependent kinase 11B (Homo sapiens) (UniProt P21127)
[12] = target: Cyclin-dependent kinase 16 (Homo sapiens) (UniProt Q00536)
[13] = target: Protein kinase C delta type (Homo sapiens) (UniProt Q05655)
[14] = target: Phosphatidylinositol 4-phosphate 5-kinase type-1 alpha (Homo sapiens) (UniProt Q99755)
[15] = target: Receptor tyrosine-protein kinase erbB-3 (Homo sapiens) (UniProt P21860)
[16] = target: Phosphatidylinositol 3-kinase catalytic subunit type 3 (Homo sapiens) (UniProt Q8NEB9)
[17] = target: Receptor-interacting serine/threonine-protein kinase 2 (Homo sapiens) (UniProt O43353)
[18] = target: Serine/threonine-protein kinase TAO1 (Homo sapiens) (UniProt Q7L7X3)
[19] = target: Activin receptor type-1-like (Homo sapiens) (UniProt P37023)
[20] = target: Cyclin-G-associated kinase (Homo sapiens) (UniProt O14976)
[21] = target: Mitogen-activated protein kinase kinase kinase kinase 5 (Homo sapiens) (UniProt Q9Y4K4)
[22] = target: Mitogen-activated protein kinase kinase kinase 6 (Homo sapiens) (UniProt O95382)
[23] = target: Serine/threonine-protein kinase PLK1 (Homo sapiens) (UniProt P53350)
[24] = system: Mast/stem cell growth factor receptor Kit (Homo sapiens), P10721 [V559D,T670I]
[25] = target: Myosin light chain kinase family member 4 (Homo sapiens) (UniProt Q86YV6)
[26] = target: Phosphatidylinositol 4-phosphate 5-kinase type-1 gamma (Homo sapiens) (UniProt O60331)
[27] = target: Serine/threonine-protein kinase MRCK alpha (Homo sapiens) (UniProt Q5VT25)
[28] = target: Serine/threonine-protein kinase BRSK2 (Homo sapiens) (UniProt Q8IWQ3)
[29] = target: Serine/threonine-protein kinase SIK3 (Homo sapiens) (UniProt Q9Y2K2)
[30] = target: Angiopoietin-1 receptor (Homo sapiens) (UniProt Q02763)
[31] = target: Serine/threonine-protein kinase TAO2 (Homo sapiens) (UniProt Q9UL54)
[32] = target: Tyrosine-protein kinase JAK1 (Homo sapiens) (UniProt P23458)
[33] = target: Serine/threonine-protein kinase haspin (Homo sapiens) (UniProt Q8TF76)
[34] = target: Rho-associated protein kinase 1 (Homo sapiens) (UniProt Q13464)
[35] = target: Fibroblast growth factor receptor 3 (Homo sapiens) (UniProt P22607)
[36] = target: Serine/threonine-protein kinase MARK1 (Homo sapiens) (UniProt Q9P0L2)
[37] = target: Serine/threonine-protein kinase RIO3 (Homo sapiens) (UniProt O14730)
[38] = target: Testis-specific serine/threonine-protein kinase 1 (Homo sapiens) (UniProt Q9BXA7)
[39] = target: Serine/threonine-protein kinase 4 (Homo sapiens) (UniProt Q13043)
[40] = target: Insulin receptor (Homo sapiens) (UniProt P06213)
[41] = target: Ribosomal protein S6 kinase alpha-2 (Homo sapiens) (UniProt Q15349)
[42] = target: NT-3 growth factor receptor (Homo sapiens) (UniProt Q16288)
[43] = target: Serine/threonine-protein kinase OSR1 (Homo sapiens) (UniProt O95747)
[44] = target: Calcium/calmodulin-dependent protein kinase type II subunit beta (Homo sapiens) (UniProt Q13554)
[45] = target: Cyclin-dependent kinase 15 (Homo sapiens) (UniProt Q96Q40)
[46] = target: Ephrin type-A receptor 2 (Homo sapiens) (UniProt P29317)

Sequence of Protein kinase C delta type (Homo sapiens) (Q05655 whole entry, looked up): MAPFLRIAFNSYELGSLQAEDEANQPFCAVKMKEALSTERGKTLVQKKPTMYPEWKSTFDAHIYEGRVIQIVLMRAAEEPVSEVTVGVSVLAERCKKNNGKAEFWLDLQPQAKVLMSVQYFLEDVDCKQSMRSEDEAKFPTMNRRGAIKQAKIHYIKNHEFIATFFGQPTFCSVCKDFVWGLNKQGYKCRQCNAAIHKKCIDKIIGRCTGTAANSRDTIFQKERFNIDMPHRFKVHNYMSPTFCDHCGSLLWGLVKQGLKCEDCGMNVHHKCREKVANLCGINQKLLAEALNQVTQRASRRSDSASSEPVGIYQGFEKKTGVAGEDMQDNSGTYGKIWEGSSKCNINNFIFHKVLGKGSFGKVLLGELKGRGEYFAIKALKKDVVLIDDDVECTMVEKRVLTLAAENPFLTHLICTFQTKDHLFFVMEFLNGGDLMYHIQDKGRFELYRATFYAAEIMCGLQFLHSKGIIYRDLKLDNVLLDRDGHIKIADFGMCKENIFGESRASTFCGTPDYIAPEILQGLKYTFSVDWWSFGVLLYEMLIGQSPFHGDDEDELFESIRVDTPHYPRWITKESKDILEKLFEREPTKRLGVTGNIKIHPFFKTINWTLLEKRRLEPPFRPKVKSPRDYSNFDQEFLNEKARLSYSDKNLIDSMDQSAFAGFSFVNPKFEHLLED
Sequence of Receptor tyrosine-protein kinase erbB-3 (Homo sapiens) (P21860 whole entry): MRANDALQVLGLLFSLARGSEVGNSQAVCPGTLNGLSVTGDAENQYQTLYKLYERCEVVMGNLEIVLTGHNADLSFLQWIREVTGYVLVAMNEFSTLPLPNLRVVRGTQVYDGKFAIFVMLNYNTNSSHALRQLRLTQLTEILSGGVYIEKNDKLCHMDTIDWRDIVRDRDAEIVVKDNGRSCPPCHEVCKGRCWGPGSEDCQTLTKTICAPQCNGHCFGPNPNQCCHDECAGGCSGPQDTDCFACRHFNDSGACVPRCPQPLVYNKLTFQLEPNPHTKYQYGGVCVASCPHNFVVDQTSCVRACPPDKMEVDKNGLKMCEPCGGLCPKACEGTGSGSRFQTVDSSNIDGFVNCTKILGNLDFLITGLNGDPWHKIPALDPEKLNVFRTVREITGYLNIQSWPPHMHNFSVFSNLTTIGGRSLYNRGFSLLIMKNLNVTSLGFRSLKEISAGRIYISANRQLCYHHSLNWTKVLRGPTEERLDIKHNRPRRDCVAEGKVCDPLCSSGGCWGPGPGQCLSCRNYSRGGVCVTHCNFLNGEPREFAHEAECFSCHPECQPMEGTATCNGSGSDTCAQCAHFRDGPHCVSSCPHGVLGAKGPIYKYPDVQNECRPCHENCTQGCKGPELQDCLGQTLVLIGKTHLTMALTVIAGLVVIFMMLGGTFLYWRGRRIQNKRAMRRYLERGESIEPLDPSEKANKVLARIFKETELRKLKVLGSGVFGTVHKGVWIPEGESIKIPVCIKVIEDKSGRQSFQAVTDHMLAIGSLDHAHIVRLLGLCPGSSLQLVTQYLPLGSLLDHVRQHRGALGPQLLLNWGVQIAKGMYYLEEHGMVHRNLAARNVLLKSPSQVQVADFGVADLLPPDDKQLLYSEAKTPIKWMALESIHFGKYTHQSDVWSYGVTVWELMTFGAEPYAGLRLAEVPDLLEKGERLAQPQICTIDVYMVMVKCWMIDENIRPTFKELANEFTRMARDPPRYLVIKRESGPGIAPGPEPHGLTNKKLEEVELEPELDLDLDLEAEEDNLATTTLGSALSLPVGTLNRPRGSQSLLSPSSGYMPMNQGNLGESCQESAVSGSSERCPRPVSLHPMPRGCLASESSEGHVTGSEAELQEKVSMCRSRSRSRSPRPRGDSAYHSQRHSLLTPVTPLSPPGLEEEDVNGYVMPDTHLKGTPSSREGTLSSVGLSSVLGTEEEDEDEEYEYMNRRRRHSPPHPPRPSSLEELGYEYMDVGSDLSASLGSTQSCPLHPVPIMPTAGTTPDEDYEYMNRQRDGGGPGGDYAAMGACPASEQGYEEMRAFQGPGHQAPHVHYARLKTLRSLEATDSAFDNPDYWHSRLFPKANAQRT
Sequence of Phosphatidylinositol 3-kinase catalytic subunit type 3 (Homo sapiens) (Q8NEB9 whole entry): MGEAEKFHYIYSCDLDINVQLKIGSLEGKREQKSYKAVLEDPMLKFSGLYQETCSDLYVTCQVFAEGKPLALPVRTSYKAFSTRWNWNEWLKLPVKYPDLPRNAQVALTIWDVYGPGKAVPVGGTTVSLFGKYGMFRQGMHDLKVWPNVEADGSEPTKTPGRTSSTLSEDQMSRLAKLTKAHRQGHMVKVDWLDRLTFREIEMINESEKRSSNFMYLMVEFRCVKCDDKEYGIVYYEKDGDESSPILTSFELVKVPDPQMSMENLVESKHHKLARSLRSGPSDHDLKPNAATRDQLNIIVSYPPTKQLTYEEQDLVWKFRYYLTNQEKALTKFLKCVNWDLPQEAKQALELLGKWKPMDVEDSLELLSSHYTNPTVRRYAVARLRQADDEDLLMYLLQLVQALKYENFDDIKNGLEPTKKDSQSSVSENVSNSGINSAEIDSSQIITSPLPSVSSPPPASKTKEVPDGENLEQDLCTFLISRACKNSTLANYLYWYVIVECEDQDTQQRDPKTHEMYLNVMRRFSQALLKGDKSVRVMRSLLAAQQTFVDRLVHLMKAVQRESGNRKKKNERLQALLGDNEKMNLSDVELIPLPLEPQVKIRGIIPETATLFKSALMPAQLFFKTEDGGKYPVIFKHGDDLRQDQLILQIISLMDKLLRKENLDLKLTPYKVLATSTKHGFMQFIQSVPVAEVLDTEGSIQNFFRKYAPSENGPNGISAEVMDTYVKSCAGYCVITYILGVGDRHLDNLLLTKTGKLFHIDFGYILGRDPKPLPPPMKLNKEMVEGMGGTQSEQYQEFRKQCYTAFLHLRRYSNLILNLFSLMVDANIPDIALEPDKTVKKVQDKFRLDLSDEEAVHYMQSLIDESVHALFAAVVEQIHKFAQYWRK
Sequence of Serine/threonine-protein kinase MARK1 (Homo sapiens) (Q9P0L2 whole entry, looked up): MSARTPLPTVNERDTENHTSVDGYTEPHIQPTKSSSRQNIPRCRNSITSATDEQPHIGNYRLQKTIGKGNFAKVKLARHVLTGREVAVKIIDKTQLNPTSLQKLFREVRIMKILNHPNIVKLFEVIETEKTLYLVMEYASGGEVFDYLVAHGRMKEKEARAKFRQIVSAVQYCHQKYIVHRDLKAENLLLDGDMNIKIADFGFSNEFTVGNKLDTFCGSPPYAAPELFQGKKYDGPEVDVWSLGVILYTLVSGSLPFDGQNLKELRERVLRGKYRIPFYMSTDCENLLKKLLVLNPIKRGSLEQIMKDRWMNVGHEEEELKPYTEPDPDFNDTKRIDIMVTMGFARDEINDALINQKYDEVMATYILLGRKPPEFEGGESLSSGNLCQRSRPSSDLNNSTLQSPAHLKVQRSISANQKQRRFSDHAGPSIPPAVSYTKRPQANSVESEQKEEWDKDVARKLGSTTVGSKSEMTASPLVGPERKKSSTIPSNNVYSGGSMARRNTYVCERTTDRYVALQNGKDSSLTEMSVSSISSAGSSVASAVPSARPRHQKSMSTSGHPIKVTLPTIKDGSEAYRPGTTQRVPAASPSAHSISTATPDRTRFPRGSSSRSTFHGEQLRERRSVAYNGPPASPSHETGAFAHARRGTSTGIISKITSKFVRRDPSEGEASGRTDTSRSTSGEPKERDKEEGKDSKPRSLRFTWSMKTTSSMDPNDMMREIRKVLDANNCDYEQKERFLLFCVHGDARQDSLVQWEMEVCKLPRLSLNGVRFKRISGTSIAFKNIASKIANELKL
Sequence of Serine/threonine-protein kinase 4 (Homo sapiens) (Q13043 whole entry): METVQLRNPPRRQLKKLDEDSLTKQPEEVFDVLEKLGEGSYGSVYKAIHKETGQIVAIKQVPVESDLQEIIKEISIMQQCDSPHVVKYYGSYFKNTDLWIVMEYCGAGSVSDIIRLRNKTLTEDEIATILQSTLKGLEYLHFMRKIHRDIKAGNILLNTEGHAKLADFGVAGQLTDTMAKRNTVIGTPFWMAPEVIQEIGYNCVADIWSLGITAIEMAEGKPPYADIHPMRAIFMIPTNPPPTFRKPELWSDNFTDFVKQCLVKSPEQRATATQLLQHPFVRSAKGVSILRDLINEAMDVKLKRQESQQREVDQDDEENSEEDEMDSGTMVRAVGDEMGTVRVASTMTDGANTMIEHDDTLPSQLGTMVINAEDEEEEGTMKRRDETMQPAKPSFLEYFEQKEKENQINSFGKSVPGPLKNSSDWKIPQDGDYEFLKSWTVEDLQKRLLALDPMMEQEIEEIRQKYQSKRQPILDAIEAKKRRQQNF
Sequence of Phosphatidylinositol 4-phosphate 5-kinase type-1 gamma (Homo sapiens) (O60331 whole entry): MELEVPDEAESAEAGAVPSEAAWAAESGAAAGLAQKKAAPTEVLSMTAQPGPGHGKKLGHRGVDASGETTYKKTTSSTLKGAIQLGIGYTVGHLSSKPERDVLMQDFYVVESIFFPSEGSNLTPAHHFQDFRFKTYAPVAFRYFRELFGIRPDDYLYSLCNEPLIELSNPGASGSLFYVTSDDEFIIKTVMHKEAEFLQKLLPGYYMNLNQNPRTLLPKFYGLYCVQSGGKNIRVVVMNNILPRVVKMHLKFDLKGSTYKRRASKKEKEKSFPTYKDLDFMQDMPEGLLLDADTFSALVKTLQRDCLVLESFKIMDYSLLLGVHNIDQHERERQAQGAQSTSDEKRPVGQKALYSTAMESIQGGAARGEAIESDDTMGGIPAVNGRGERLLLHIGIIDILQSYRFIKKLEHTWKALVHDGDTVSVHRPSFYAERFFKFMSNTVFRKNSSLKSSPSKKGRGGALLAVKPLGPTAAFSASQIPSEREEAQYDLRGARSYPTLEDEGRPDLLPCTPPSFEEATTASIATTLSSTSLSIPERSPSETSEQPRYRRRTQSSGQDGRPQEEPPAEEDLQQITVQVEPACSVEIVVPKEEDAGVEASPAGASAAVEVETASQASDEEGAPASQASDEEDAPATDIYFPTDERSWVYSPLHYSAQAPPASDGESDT

CN([C@@H]1CCc2c(CC(=O)O)c3cc(S(C)(=O)=O)ccc3n2C1)S(=O)(=O)c1ccc(F)cc1
residual activity [1]: 100% | residual activity [2]: 100% | residual activity [3]: 100% | residual activity [4]: 91% | residual activity [5]: 79% | residual activity [6]: 71% | residual activity [7]: 77% | residual activity [8]: 74% | residual activity [9]: 100% | residual activity [10]: 100% | residual activity [11]: 100% | residual activity [12]: 84% | residual activity [13]: 100% | residual activity [14]: 100% | residual activity [15]: 100% | residual activity [16]: 100% | residual activity [17]: 100% | residual activity [18]: 95% | residual activity [19]: 100% | residual activity [20]: 93% | residual activity [21]: 100% | residual activity [22]: 89% | residual activity [23]: 93% | residual activity [24]: 100% | residual activity [25]: 100% | residual activity [26]: 100% | residual activity [27]: 100% | residual activity [28]: 100% | residual activity [29]: 89% | residual activity [30]: 88% | residual activity [31]: 100% | residual activity [32]: 94% | residual activity [33]: 83% | residual activity [34]: 6% | residual activity [35]: 100% | residual activity [36]: 89% | residual activity [37]: 94% | residual activity [38]: 100% | residual activity [39]: 97% | residual activity [40]: 100% | residual activity [41]: 99% | residual activity [42]: 100% | residual activity [43]: 100% | residual activity [44]: 100% | residual activity [45]: 84% | residual activity [46]: 100%

CN([C@@H]1CCc2c(CC(=O)O)c3ccccc3n2C1)S(=O)(=O)c1ccc(F)cc1 [MK-7246]
residual activity [1]: 100% | residual activity [2]: 100% | residual activity [3]: 100% | residual activity [4]: 100% | residual activity [5]: 98% | residual activity [6]: 100% | residual activity [7]: 100% | residual activity [8]: 93% | residual activity [9]: 100% | residual activity [10]: 100% | residual activity [11]: 100% | residual activity [12]: 98% | residual activity [13]: 100% | residual activity [14]: 100% | residual activity [15]: 100% | residual activity [16]: 97% | residual activity [17]: 92% | residual activity [18]: 93% | residual activity [19]: 88% | residual activity [20]: 100% | residual activity [21]: 100% | residual activity [22]: 80% | residual activity [23]: 98% | residual activity [24]: 100% | residual activity [25]: 100% | residual activity [26]: 100% | residual activity [27]: 100% | residual activity [28]: 100% | residual activity [29]: 98% | residual activity [30]: 92% | residual activity [31]: 82% | residual activity [32]: 83% | residual activity [33]: 100% | residual activity [34]: 34% | residual activity [35]: 100% | residual activity [36]: 100% | residual activity [37]: 100% | residual activity [38]: 100% | residual activity [39]: 98% | residual activity [40]: 100% | residual activity [41]: 84% | residual activity [42]: 100% | residual activity [43]: 100% | residual activity [44]: 99% | residual activity [45]: 100% | residual activity [46]: 100%
